Assay results published in patent US6620828B2, “Thiazole compounds and pharmaceutical compositions for inhibiting protein kinases and methods for their use” (Agouron Pharmaceuticals, Inc., priority 1999, dated 2003).
Where “and” joins values, the source holds several entries; their conditions need not be identical. Identical values can stand only once.

Assays:
CDK2/Cyclin A complex = CDK2/Cyclin A complex (Homo sapiens, UniProt P24941); test: CDK2/Cyclin A assay; assay type: biochemical; details: Table 2
Summary of the method: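 Radiometric assay: 150 nM CDK2/cyclin A (insect-cell CDK2, truncated cyclin A) phosphorylates His-tagged Rb fragment (residues 386-928) with 25 μM ATP plus [32P]ATP, pH 7.4 HEPES, 2% DMSO, 30 °C for 20 min. Filter-captured product counted by phosphorimager; apparent Ki from competitive or tight-binding inhibition fits.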

FGF-R1 = molecular target: T1, FGF-R1 (Homo sapiens, UniProt P11362, C488A/C584S/L457V); test: FGF-R spectrophotometric assay; assay type: biochemical; details: Table 2
T1 construct: starting from the endogenous methionine residue 456 to glutamate 766; made in house; host or cells: baculovirus vector expression system
T1 sequence (P11362 456-766 L457V/C488A/C584S): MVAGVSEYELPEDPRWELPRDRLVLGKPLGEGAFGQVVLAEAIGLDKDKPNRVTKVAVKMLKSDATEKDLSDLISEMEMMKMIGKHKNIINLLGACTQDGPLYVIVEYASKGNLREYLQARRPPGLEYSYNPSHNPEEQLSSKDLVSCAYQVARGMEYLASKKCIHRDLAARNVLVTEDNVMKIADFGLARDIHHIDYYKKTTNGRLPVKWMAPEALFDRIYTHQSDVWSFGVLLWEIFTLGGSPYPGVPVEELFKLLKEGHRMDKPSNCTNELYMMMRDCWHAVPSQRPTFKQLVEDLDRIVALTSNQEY
Summary of the method: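 Kinase domain (Met456–Glu766, baculovirus-expressed) used at 50 nM in a spectrophotometric assay run as for VEGF-R2. Substrates were 2 mM ATP and 15 mM poly(E4Y1).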

CDK4/Cyclin D3 complex = molecular target: T2, CDK4/Cyclin D3 complex (Homo sapiens, UniProt P11802); test: CDK4/Cyclin D assay; assay type: biochemical; details: Table 2
T2 construct: made in house; host or cells: insect cells co-infected with baculovirus vectors
T2 sequence (P11802 whole entry): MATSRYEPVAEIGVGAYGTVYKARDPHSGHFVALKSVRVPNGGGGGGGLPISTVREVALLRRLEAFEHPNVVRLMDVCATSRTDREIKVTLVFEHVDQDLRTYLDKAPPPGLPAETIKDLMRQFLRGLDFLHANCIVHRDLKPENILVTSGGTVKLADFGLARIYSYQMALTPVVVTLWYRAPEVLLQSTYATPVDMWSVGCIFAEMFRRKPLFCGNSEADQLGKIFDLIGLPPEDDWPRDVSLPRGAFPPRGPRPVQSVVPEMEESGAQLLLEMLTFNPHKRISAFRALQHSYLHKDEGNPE
T2 sequence (P30281 whole entry partner): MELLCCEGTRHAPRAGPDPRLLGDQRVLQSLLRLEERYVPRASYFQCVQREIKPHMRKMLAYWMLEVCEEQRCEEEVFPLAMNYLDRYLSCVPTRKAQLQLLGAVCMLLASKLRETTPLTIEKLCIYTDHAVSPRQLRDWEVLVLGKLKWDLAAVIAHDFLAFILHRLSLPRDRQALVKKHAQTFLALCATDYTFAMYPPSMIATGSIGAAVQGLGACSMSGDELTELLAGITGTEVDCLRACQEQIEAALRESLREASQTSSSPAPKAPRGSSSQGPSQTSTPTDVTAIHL
Summary of the method: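 Insect-cell-expressed CDK4/cyclin D3 (50 nM) phosphorylating His-tagged Rb fragment (residues 386-928) with 25 μM [^32P]ATP in HEPES pH 7.4, MgCl2, 2% DMSO; 20 min at 30 °C, EDTA stop. Filter-captured 32P by phosphorimager; apparent Ki from competitive or tight-binding inhibition fits.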

FAKcd409 = molecular target: T3, FAKcd409 (Homo sapiens, UniProt Q05397, P410T); test: FAK HTS assay; assay type: biochemical; details: 10 uM compound, HTS Delphia assay; 10 µM
T3 construct: comprises residues methionine 409 to glutamate 689; made in house; host or cells: baculovirus vector expression system
T3 sequence (Q05397 409-689 P410T): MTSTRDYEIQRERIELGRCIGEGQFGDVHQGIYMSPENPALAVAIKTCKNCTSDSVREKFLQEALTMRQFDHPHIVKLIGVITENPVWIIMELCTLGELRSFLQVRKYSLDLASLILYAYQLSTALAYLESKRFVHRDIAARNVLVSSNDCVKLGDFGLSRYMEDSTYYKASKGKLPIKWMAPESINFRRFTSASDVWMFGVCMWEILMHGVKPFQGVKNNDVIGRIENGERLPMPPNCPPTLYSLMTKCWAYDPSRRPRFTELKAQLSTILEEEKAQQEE

CHK1 = molecular target: T4, CHK1 (Homo sapiens, UniProt O14757); test: CHK1 high-throughput screening; assay type: biochemical; details: read-out: % inhibition @ 20 μM, Table 4, repeated entries per example
T4 sequence (O14757 1-476): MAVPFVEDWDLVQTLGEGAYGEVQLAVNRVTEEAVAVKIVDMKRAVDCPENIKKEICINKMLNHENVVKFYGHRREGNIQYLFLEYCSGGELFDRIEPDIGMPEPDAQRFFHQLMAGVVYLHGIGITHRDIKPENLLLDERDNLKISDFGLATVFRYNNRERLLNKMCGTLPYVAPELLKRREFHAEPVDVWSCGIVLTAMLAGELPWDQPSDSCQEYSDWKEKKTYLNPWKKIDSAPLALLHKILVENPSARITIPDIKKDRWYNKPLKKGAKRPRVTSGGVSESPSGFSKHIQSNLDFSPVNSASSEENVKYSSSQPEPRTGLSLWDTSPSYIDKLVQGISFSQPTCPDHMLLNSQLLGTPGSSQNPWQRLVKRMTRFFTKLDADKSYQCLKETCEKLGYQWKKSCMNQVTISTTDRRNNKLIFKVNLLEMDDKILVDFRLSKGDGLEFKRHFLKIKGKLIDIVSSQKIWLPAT

SMILES	Ki (CDK2/Cyclin A complex) [µM]	Ki (FGF-R1) [µM]	Ki (CDK4/Cyclin D3 complex) [µM]	melting point [°C]	% inhibition of FAK (FAKcd409)	inhibition at 20 µM (CHK1) [%]
COc1cc(Nc2nc(N)c(-c3nc(-c4cccc(O)c4)cs3)s2)cc(OC)c1OC [A(17), 3-[4′-Amino-2′-(3,4,5-trimethoxy-phenylamino)-[2,5′]bithiazolyl-4-yl]-phenol]	2.1	2.4	29	226 to 230		
CCCNc1nc(N)c(-c2nc(-c3cccc(O)c3)cs2)s1 [A(29), 3-(4′-Amino-2′-propylamino-[2,5′]bithiazolyl-4-yl)-phenol]	6.4		13		−6% and −11% and −8%	7.1
COc1cc(Nc2nc(N)c(-c3nc(-c4cccc(O)c4)no3)s2)cc(OC)c1OC [K(1), 3-{5-[4-Amino-2-(3,4,5-trimethoxy-phenylamino)-thiazol-5-yl]-[1,2,4]oxadiazol-3-yl}-phenol]	0.62		6.7			
